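Dose response: 5 concentrations. Exposure: 48 h. Format: 96-well plates. Endpoint: linear interpolation; highest concentration if not reached. GI50 is the concentration that inhibits growth by half.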 Calls of active or inactive are those of the source. Cut-off read from the data, not from the text of the source: active = GI50 up to about 1.1 µM and inactive = higher.
Columns and labels:
Assay in all cases: DTP human tumour cell line panel, 48 h
OVCAR-4 = test system: OVCAR-4
PC-3 = test system: PC-3
SW-620 = test system: SW-620
UACC-62 = test system: UACC-62
SF-539 = test system: SF-539
KM12 = test system: KM12
MCF7 = test system: MCF7
HOP-62 = test system: HOP-62
COLO 205 = test system: COLO 205
NCI-H226 = test system: NCI-H226
IGROV-1 = test system: IGROV-1
TK-10 = test system: TK-10
SN12C = test system: SN12C
U-251 = test system: U-251
CAKI-1 = test system: CAKI-1
HCT-116 = test system: HCT-116
SK-OV-3 = test system: SK-OV-3
Malme-3M = test system: Malme-3M
LOX IMVI = test system: LOX IMVI
UO-31 = test system: UO-31
EKVX = test system: EKVX
SK-MEL-2 = test system: SK-MEL-2
HT-29 = test system: HT-29
OVCAR-5 = test system: OVCAR-5
MDA-MB-231 = test system: MDA-MB-231
ACHN = test system: ACHN
NCI-H522 = test system: NCI-H522
OVCAR-8 = test system: OVCAR-8
M14 = test system: M14
NCI-H460 = test system: NCI-H460
HL-60 = test system: HL-60
SF-295 = test system: SF-295
SR = test system: SR
NCI/ADR-RES = test system: NCI/ADR-RES
T47D = test system: T47D
HCT-15 = test system: HCT-15
MDA-MB-435 = test system: MDA-MB-435
SF-268 = test system: SF-268
A549 = test system: A549
MOLT-4 = test system: MOLT-4
HCC 2998 = test system: HCC 2998
SNB-75 = test system: SNB-75
OVCAR-3 = test system: OVCAR-3
RXF 393 = test system: RXF 393
NCI-H23 = test system: NCI-H23
SNB-19 = test system: SNB-19
DU-145 = test system: DU-145
K562 = test system: K562
SK-MEL-28 = test system: SK-MEL-28
MDA-N = test system: MDA-N
RPMI-8226 = test system: RPMI-8226
SK-MEL-5 = test system: SK-MEL-5
CCRF-CEM = test system: CCRF-CEM
Hs-578T = test system: Hs-578T
A498 = test system: A498

## CCN(CC)CCN1C(=O)C(=O)N(c2cccc3ccccc23)C1=O
OVCAR-4
  GI50: > 10 µM (inactive)
PC-3
  GI50: > 10 µM (inactive)
SW-620
  GI50: > 10 µM (inactive)
UACC-62
  GI50: > 10 µM (inactive)
SF-539
  GI50: > 10 µM (inactive)
KM12
  GI50: > 10 µM (inactive)
MCF7
  GI50: > 10 µM (inactive)
HOP-62
  GI50: > 10 µM (inactive)
COLO 205
  GI50: > 10 µM (inactive)
NCI-H226
  GI50: > 10 µM (inactive)
IGROV-1
  GI50: > 10 µM (inactive)
TK-10
  GI50: > 10 µM (inactive)
SN12C
  GI50: > 10 µM (inactive)
U-251
  GI50: > 10 µM (inactive)
CAKI-1
  GI50: > 10 µM (inactive)
HCT-116
  GI50: > 10 µM (inactive)
SK-OV-3
  GI50: > 10 µM (inactive)
Malme-3M
  GI50: > 10 µM (inactive)
LOX IMVI
  GI50: > 10 µM (inactive)
UO-31
  GI50: > 10 µM (inactive)
EKVX
  GI50: > 10 µM (inactive)
SK-MEL-2
  GI50: > 10 µM (inactive)
HT-29
  GI50: > 10 µM (inactive)
OVCAR-5
  GI50: > 10 µM (inactive)
MDA-MB-231
  GI50: > 10 µM (inactive)
ACHN
  GI50: > 10 µM (inactive)
NCI-H522
  GI50: > 10 µM (inactive)
OVCAR-8
  GI50: > 10 µM (inactive)
M14
  GI50: > 10 µM (inactive)
NCI-H460
  GI50: > 10 µM (inactive)
HL-60
  GI50: > 10 µM (inactive)
SF-295
  GI50: > 10 µM (inactive)
SR
  GI50: > 10 µM (inactive)
NCI/ADR-RES
  GI50: > 10 µM (inactive)
T47D
  GI50: > 10 µM (inactive)
HCT-15
  GI50: > 10 µM
MDA-MB-435
  GI50: > 10 µM (inactive)
SF-268
  GI50: > 10 µM (inactive)
A549
  GI50: > 10 µM (inactive)
MOLT-4
  GI50: > 10 µM (inactive)
HCC 2998
  GI50: > 10 µM (inactive)
SNB-75
  GI50: > 10 µM (inactive)
OVCAR-3
  GI50: > 10 µM (inactive)
RXF 393
  GI50: > 10 µM (inactive)
NCI-H23
  GI50: > 10 µM (inactive)
SNB-19
  GI50: > 10 µM (inactive)
DU-145
  GI50: > 10 µM (inactive)
K562
  GI50: > 10 µM (inactive)
SK-MEL-28
  GI50: > 10 µM (inactive)
MDA-N
  GI50: > 10 µM (inactive)
RPMI-8226
  GI50: > 10 µM (inactive)
SK-MEL-5
  GI50: > 10 µM (inactive)
CCRF-CEM
  GI50: > 10 µM (inactive)
Hs-578T
  GI50: 8.65 µM (inactive)
A498
  GI50: > 10 µM (inactive)
